From US20230263822A1, “MODULATION OF FACTOR 11 EXPRESSION” (Ionis Pharmaceuticals, Inc., priority 2008, published 2023)
Like-named read-outs stand apart in the source and are kept apart here. e = 2'-O-(2-methoxyethyl) (MOE); d = 2'-deoxy (DNA)

Legend:
[1] = rat, in vivo, sc, 50 mg/kg
[2] = rat, in vivo, sc, 50 mg/kg; remark: listed apart in the source
[3] = mouse, in vivo, sc, 50 mg/kg
[4] = mouse, in vivo, sc, 50 mg/kg; remark: listed apart in the source
[5] = mouse, in vivo, sc, 50 mg/kg; remark: listed apart in the source
[6] = rat, in vivo, sc, 50 mg/kg; remark: listed apart in the source

Row | Substance | ALT [1] | AST [1] | Albumin [1] | Bilirubin [1] | BUN [2] | Creatinine [2] | Urine protein/creatinine ratio [2] | HCT [3] | Lymphocyte [3] | Neutrophil [3] | Platelets [3] | RBC [3] | WBC [3] | hemoglobin [3] | BUN [4] | ALT [5] | AST [5] | Albumin [5] | Bilirubin [5] | HCT [6] | other results
1 | ISIS 445498: 5-8-5 or 6-8-6 MOE microwalk gapmer (Table 44) (antisense GGTGCACAGTTTCTGGCAGG; sugars from the 5' end e6 d8 e6, backbone and methylation of C not given here) | 417 IU/L | 124 IU/L | 3.7 | 0.14 mg/dL | 25 mg/dL | 0.5 mg/dL | 3.1 | 47% | 3241 | 1197 | 802 | 9.4 | 5 | 13.9 g/dL | 28 mg/dL | 66 IU/L | 102 IU/L | 3.4 | 0.24 mg/dL | 49% | Lymphocyte [6]: 89%; Neutrophil [6]: 9%; Platelets [6]: 1061 nL⁻¹; RBC [6]: 8.5 pL⁻¹; WBC [6]: 13 nL⁻¹; hemoglobin [6]: 14.7 g/dL; monocytes [6]: 2.0%
2 | ISIS 445504: 5-8-5 or 6-8-6 MOE microwalk gapmer (Table 44) (antisense GGCATTGGTGCACAGTTTCT; sugars from the 5' end e6 d8 e6, backbone and methylation of C not given here) | 206 IU/L | 86 IU/L | 3.5 | 0.11 mg/dL | 26 mg/dL | 0.4 mg/dL | 4.3 | 49% | 3578 | 959 | 826 | 9.6 | 5 | 14.7 g/dL | 29 mg/dL | 71 IU/L | 107 IU/L | 3.4 | 0.17 mg/dL | 50% | Lymphocyte [6]: 87%; Neutrophil [6]: 10%; Platelets [6]: 776 nL⁻¹; RBC [6]: 8.9 pL⁻¹; WBC [6]: 16 nL⁻¹; hemoglobin [6]: 14.7 g/dL; monocytes [6]: 2.0%
3 | ISIS 445505: 5-8-5 or 6-8-6 MOE microwalk gapmer (Table 44) (antisense CGGCATTGGTGCACAGTTTC; sugars from the 5' end e6 d8 e6, backbone and methylation of C not given here) | 356 IU/L | 243 IU/L | 3.6 | 0.15 mg/dL | 24 mg/dL | 0.4 mg/dL | 3.8 | 49% | 3447 | 818 | 725 | 9.6 | 5 | 14.6 g/dL | 29 mg/dL | 116 IU/L | 153 IU/L | 3.2 | 0.18 mg/dL | 50% | Lymphocyte [6]: 87%; Neutrophil [6]: 10%; Platelets [6]: 1089 nL⁻¹; RBC [6]: 9.1 pL⁻¹; WBC [6]: 21 nL⁻¹; hemoglobin [6]: 15.0 g/dL; monocytes [6]: 2.5%
4 | ISIS 445509: 5-8-5 or 6-8-6 MOE microwalk gapmer (Table 44) (antisense CGGACGGCATTGGTGCACAG; sugars from the 5' end e6 d8 e6, backbone and methylation of C not given here) | 676 IU/L | 291 IU/L | 3.5 | 0.14 mg/dL | 27 mg/dL | 0.5 mg/dL | 4.0 | 51% | 3758 | 1104 | 1085 | 10.2 | 5 | 15.3 g/dL | 29 mg/dL | 80 IU/L | 117 IU/L | 3.1 | 0.17 mg/dL | 47% | Lymphocyte [6]: 84%; Neutrophil [6]: 11%; Platelets [6]: 1115 nL⁻¹; RBC [6]: 8.4 pL⁻¹; WBC [6]: 17 nL⁻¹; hemoglobin [6]: 14.1 g/dL; monocytes [6]: 3.8%
5 | ISIS 445513: 5-8-5 or 6-8-6 MOE microwalk gapmer (Table 44) (antisense GCAGCGGACGGCATTGGTGC; sugars from the 5' end e6 d8 e6, backbone and methylation of C not given here) | 214 IU/L | 91 IU/L | 3.5 | 0.15 mg/dL | 24 mg/dL | 0.4 mg/dL | 4.6 |  | 5523 | 959 | 942 |  |  |  | 27 mg/dL | 37 IU/L | 84 IU/L | 3.1 | 0.22 mg/dL | 44% | Lymphocyte [6]: 82%; Neutrophil [6]: 14%; Platelets [6]: 1051 nL⁻¹; RBC [6]: 7.8 pL⁻¹; WBC [6]: 17 nL⁻¹; hemoglobin [6]: 13.0 g/dL; monocytes [6]: 3.5%
6 | ISIS 445530: 5-8-5 or 6-8-6 MOE microwalk gapmer (Table 44) (antisense GCATTGGTGCACAGTTTC; sugars from the 5' end e5 d8 e5, backbone and methylation of C not given here) | 116 IU/L | 56 IU/L | 3.7 | 0.11 mg/dL | 22 mg/dL | 0.4 mg/dL | 4.2 | 50% | 5488 | 930 | 849 | 10.0 | 7 | 15.1 g/dL | 26 mg/dL | 104 IU/L | 136 IU/L | 3.2 | 0.18 mg/dL | 50% | Lymphocyte [6]: 87%; Neutrophil [6]: 11%; Platelets [6]: 1249 nL⁻¹; RBC [6]: 8.9 pL⁻¹; WBC [6]: 12 nL⁻¹; hemoglobin [6]: 14.7 g/dL; monocytes [6]: 2.0%
7 | ISIS 445532: 5-8-5 or 6-8-6 MOE microwalk gapmer (Table 44) (antisense CGGCATTGGTGCACAGTT; sugars from the 5' end e5 d8 e5, backbone and methylation of C not given here) |  |  |  |  |  |  |  | 48% | 5490 | 1116 | 689 | 9.7 | 7 | 14.8 g/dL | 23 mg/dL | 395 IU/L | 360 IU/L | 2.9 | 0.20 mg/dL |  | 
